Reference: ChEMBL document CHEMBL4342518, “First Contact: 7-Phenyl-2-Aminoquinolines, Potent and Selective Neuronal Nitric Oxide Synthase Inhibitors That Target an Isoform-Specific Aspartate” (J Med Chem, 2020)

Assays:
Nitric oxide synthase 3 = target: T1, Nitric oxide synthase 3 (Homo sapiens, UniProt P29474)
T1 sequence (P29474 whole entry): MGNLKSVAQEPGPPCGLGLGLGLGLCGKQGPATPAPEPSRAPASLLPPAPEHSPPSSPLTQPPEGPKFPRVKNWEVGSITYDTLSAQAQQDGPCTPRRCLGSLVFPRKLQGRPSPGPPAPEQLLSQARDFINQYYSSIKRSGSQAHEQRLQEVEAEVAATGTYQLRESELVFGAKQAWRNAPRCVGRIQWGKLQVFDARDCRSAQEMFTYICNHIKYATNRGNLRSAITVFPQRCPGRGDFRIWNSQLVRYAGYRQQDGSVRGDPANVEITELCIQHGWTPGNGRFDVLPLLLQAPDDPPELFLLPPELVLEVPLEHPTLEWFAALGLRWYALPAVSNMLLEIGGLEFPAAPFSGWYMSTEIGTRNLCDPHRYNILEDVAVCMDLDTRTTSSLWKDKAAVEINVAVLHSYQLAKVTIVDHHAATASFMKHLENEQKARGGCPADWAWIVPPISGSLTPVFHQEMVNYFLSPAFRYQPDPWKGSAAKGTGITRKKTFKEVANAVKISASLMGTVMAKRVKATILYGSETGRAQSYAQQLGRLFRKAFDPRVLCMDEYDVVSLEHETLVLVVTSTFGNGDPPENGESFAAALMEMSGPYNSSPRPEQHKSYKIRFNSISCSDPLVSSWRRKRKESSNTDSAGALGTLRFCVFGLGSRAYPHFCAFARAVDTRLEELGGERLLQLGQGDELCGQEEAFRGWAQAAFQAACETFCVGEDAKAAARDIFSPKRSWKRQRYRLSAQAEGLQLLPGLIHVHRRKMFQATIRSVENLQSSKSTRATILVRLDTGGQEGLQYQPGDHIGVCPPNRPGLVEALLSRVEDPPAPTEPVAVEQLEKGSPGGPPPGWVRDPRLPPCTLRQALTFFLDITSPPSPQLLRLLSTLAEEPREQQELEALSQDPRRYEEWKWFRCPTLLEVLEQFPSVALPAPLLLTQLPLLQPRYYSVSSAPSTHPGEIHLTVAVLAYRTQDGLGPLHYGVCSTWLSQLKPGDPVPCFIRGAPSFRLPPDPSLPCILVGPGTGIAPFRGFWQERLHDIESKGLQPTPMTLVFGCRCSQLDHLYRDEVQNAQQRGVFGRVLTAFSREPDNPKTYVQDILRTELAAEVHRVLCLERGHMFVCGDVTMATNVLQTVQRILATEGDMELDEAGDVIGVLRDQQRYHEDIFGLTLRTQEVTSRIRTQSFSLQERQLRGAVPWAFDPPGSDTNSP

in vitro [1] = details: human, liver microsomes
Nitric oxide synthase 1 [2] = target: Nitric oxide synthase 1 (Rattus norvegicus, UniProt P29476)
Chain of Nitric oxide synthase 1 (Rattus norvegicus, UniProt P29476) (P29476 whole entry): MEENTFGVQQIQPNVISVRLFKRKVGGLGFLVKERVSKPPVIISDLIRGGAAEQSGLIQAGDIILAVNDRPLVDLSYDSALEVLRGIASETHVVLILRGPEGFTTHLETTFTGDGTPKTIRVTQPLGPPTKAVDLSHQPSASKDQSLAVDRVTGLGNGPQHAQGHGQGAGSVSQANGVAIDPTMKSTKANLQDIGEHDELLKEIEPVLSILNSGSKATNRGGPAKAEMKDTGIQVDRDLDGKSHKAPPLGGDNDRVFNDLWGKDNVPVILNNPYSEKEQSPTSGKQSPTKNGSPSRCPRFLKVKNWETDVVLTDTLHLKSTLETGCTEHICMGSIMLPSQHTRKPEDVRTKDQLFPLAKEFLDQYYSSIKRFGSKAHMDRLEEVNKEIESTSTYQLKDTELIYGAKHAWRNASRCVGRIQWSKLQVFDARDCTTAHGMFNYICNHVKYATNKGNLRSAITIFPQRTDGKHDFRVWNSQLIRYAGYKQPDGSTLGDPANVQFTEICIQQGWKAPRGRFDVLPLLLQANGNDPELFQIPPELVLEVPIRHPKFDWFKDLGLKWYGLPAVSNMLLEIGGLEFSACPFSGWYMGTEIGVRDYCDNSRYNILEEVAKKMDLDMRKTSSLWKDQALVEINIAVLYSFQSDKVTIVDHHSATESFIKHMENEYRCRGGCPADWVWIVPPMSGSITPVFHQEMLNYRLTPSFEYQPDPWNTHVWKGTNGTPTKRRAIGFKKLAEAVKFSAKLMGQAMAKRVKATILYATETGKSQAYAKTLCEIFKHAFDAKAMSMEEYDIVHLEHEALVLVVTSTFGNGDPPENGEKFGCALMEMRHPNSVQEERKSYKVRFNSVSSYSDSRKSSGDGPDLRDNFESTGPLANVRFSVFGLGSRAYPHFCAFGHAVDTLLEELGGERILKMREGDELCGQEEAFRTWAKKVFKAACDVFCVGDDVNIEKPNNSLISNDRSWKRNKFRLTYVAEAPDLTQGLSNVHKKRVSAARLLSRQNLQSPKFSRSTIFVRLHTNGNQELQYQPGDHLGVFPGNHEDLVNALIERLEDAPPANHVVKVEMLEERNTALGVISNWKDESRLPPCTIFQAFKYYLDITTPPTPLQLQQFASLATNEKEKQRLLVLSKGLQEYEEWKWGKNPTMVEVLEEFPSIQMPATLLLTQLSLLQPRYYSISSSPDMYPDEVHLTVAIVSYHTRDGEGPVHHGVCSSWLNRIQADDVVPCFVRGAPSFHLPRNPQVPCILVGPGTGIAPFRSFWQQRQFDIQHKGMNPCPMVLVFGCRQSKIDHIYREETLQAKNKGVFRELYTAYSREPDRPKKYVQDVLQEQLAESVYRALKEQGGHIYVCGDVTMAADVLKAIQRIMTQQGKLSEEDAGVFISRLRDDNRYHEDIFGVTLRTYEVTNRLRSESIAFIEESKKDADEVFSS

in vitro [3] = details: human, liver microsomes; remark: listed apart in the source
in vitro [4] = details: human, liver microsomes; remark: listed apart in the source
in vitro [5] = details: human, liver microsomes, pH 7.4
Nitric oxide synthase 1 [6] = target: Nitric oxide synthase 1 (Rattus norvegicus, UniProt P29476, D597N)
Chain of Nitric oxide synthase 1 (Rattus norvegicus, UniProt P29476, D597N) (P29476 whole entry D597N): as the sequence (P29476 whole entry) above, with D597N counted along it

Nitric oxide synthase 1 [7] = target: Nitric oxide synthase 1 (Homo sapiens, UniProt P29475)
Chain of Nitric oxide synthase 1 (Homo sapiens, UniProt P29475) (P29475 whole entry): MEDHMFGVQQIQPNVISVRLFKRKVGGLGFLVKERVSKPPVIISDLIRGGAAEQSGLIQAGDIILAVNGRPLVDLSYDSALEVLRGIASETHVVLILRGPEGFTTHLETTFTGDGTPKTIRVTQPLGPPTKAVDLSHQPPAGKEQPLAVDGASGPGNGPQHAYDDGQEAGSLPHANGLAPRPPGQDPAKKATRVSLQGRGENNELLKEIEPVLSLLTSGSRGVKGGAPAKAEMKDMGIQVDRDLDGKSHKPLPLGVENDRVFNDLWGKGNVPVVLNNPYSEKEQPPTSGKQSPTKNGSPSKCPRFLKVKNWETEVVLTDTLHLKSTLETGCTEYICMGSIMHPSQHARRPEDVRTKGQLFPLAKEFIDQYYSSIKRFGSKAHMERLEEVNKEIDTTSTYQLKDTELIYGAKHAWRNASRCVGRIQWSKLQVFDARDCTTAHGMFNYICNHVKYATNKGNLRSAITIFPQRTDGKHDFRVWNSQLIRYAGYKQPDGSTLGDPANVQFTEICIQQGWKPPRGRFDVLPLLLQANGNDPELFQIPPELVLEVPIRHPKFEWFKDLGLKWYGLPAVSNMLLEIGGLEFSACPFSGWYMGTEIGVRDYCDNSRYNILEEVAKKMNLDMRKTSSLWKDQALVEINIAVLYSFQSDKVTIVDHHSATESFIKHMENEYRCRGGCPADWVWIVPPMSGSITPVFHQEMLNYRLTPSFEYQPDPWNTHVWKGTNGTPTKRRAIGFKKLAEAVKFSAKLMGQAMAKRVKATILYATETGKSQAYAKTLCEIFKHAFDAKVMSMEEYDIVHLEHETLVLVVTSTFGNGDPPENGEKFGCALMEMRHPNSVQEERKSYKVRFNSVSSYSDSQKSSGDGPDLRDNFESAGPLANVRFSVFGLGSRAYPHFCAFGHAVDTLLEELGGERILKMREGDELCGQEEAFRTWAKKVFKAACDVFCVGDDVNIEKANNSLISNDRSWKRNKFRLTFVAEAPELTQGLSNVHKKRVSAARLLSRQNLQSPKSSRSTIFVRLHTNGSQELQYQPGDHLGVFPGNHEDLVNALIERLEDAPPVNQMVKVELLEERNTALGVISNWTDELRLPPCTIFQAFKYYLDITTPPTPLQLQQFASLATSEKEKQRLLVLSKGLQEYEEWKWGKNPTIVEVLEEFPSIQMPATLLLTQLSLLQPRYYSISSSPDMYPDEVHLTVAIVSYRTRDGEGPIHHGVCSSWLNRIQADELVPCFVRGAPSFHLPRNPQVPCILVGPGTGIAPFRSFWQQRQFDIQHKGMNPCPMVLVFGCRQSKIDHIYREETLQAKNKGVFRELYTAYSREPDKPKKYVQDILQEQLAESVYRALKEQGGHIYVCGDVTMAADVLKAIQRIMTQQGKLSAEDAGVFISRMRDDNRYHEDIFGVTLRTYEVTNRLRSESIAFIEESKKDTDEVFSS

[8] = target: Nitric oxide synthase, inducible (Homo sapiens, UniProt P35228)
Chain of Nitric oxide synthase, inducible (P35228 whole entry): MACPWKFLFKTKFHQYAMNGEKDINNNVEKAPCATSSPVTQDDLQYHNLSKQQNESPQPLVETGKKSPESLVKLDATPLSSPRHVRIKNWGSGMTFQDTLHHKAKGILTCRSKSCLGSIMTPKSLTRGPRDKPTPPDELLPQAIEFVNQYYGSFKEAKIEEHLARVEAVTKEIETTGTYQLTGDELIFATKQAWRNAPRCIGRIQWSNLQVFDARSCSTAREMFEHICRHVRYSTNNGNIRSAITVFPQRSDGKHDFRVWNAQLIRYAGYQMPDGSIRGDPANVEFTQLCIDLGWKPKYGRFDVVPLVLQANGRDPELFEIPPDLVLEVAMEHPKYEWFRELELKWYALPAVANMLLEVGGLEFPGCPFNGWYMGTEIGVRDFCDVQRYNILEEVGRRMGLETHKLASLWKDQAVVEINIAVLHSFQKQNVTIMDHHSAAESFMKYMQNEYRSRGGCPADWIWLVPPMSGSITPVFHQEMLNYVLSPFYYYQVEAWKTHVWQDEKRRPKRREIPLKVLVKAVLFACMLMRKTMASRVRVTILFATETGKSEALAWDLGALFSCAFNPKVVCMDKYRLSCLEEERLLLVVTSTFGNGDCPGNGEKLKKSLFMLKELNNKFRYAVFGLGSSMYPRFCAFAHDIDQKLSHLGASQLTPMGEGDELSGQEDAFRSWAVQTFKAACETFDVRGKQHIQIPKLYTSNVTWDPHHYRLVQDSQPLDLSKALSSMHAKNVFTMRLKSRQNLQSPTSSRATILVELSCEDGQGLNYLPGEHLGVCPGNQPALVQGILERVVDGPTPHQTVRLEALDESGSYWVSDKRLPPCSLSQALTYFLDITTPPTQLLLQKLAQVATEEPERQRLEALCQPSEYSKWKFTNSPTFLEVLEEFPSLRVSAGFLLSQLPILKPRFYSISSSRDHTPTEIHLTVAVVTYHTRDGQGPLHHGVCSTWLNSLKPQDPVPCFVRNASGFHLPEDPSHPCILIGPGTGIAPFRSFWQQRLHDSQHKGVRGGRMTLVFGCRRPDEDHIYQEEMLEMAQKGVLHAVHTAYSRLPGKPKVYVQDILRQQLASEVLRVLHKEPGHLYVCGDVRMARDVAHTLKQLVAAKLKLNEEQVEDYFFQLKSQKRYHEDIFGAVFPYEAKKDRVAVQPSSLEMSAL

Ki (Nitric oxide synthase 3): 52600 nM | remaining at 1 h, 1.426 µM (in vitro [1]): 87% | Ki (Nitric oxide synthase 1 [2]): 55 nM | CLint scaled at 1 h, 1.426 µM (in vitro [3]): 8 mL/min/kg | half-life at 1 h, 1.426 µM (in vitro [4]): > 1 h | remaining at 1 h, 1.426 µM (in vitro [5]): 67% | Ki (Nitric oxide synthase 1 [6]): 416 nM | Ki (Nitric oxide synthase 1 [7]): 60 nM | Ki [8]: 29900 nM
Structure (SMILES): Cc1cc(N)nc2cc(-c3cccc(CN)c3)ccc12.Cl.Cl
